Test results published in patent US9526718B2, “Combination of effective substances causing synergistic effects of multiple targeting and use thereof” (VIVOZON, INC., priority 2011, dated 2016).

Legend:
serotonin release = conditions: hypothalamic, rat; cited from earlier work
5-HT2A receptor = 5-HT2A receptor (Homo sapiens, UniProt P28223); conditions: cited from earlier work
[1] = tested on: neuropathic pain rat model (SNL); experiment: Neuropathic pain rat model (spinal nerve ligation, SNL), von Frey up-down mechanical threshold; format: in vivo; conditions: Example 1, s.c., alone or combined, MDL 11,939 2 or 5 mg/kg, ORG-25543 10 or 20 mg/kg, 30 and 60 min after administration
Procedure: In order to prepare a neuropathic pain rat model (spinal nerve ligation (SNL) model), a male adult Sprague-Dawley rat was anaesthetized with isoflurane and its spinal nerves L5 were tied firmly (Kim and Chung, An experimental model for peripheral neuropathy produced by segmental spinal nerve ligation in the rat. Pain, 50: 355-363, 1992). One week later after surgical operation, MDL 11,939 and ORG-25543 were administered respectively or in combination thereof, and a pain relieving effect was monitored.
MDL 11,939 (Tocris Bioscience, USA) and ORG-25543 (CBvest inc, Korea) were dissolved in DMA/PG (2:8). MDL 11,939 was subcutaneously injected into the rat model and, immediately, ORG-25543 was subcutaneously injected into another part of the rat model. Then, 30 minutes and 60 minutes after administration, the extent of pain suppression was analyzed based on behaviors of the rat model.
The behavioral experiment was carried out with strict observance of clinical test procedures including criteria on randomization, a blind test, and use of a control group. By providing a mechanical stimulus to the left sole of the foot, a shrinking reaction to the stimulus was measured. This measurement value was determined by an up-down method using a von Frey monofilament (Baik et al., 2003 E. J. Baik, J. M. Chung and K. Chung, Peripheral norepinephrine exacerbates neuritis-induced hyperalgesia, J Pain 4 (2003), pp. 212-221; Chaplan et al., 1994 S. R. Chaplan, F. W. Bach, J. W. Pogrel, J. M. Chung and T. L. Yaksh, Quantitative assessment of tactile allodynia in the rat paw, J Neurosci Methods 53 (1994), pp. 55-63; Dixon, 1980 W. J. Dixon, Efficient analysis of experimental observations, Annu. Rev. Pharmacol. Toxicol. 20 (1980), pp. 441-462).
In the same manner as Example 1, a male adult Sprague-Dawley rat was anaesthetized with isoflurane and its spinal nerves L5 were tied firmly. […]

Sequence of 5-HT2A receptor (P28223 whole entry): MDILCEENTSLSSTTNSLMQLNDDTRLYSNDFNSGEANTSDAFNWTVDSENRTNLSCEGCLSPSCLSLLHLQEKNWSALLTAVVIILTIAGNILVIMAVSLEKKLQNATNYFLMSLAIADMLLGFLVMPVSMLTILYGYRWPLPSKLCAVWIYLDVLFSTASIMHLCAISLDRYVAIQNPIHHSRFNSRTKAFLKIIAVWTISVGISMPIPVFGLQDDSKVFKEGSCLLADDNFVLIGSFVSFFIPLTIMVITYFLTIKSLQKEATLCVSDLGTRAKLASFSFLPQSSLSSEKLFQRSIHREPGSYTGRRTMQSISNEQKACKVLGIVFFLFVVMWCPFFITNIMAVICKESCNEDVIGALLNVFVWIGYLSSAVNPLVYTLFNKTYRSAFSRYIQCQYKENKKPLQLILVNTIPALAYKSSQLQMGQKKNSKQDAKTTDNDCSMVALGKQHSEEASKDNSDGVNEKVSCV

COc1cc2c(cc1OC)[C@@H]1Cc3ccc(OC)c(OC)c3CN1CC2 [d1-tetrahydropalmatine]
serotonin release (serotonin release): mediates inhibition of serotonin release

CC(C)=CCc1c(O)cc2oc3cc(O)c(O)c(CC=C(C)C)c3c(=O)c2c1O [γ-mangostin]
antagonistic effect with respect to 5-HT2A receptor (5-HT2A receptor): antagonistic effect

COc1cc(C(=O)NCC2(N(C)C)CCCC2)cc(OC)c1OCc1ccccc1 [ORG-25543]
pain relieving (analgesic) effect [1]: no effect
pain relieving (analgesic) effect ([1]; listed as ORG2553): no or very little pain relieving effect

OC(c1ccccc1)C1CCN(CCc2ccccc2)CC1 (centres unmarked) [MDL 11,939]
pain relieving (analgesic) effect [1]: no or very little pain relieving effect
